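Briefly, cells in 96-well plates were exposed to five compound concentrations for 48 h, and endpoints were estimated by linear interpolation. Abbreviation: GI50, concentration required for 50% inhibition of growth.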 The source made the active and inactive calls. Cut-off read from the data, not from the text of the source: active = GI50 up to about 1.1 µM and inactive = higher.
Experiments:
Assay in all cases: inhibition of tumour cell growth, NCI panel, 48 h
[1] = system: OVCAR-5
[2] = system: UACC-62
[3] = system: HCT-15
[4] = system: NCI-H226
[5] = system: SF-295
[6] = system: NCI-H23
[7] = system: MDA-N
[8] = system: RPMI-8226
[9] = system: MOLT-4
[10] = system: HL-60
[11] = system: ACHN
[12] = system: BT-549
[13] = system: LOX IMVI
[14] = system: KM12
[15] = system: SF-539
[16] = system: RXF 393
[17] = system: MDA-MB-231
[18] = system: A498
[19] = system: NCI-H522
[20] = system: HCC 2998

SMILES | GI50 [1] | GI50 [2] | GI50 [3] | GI50 [4] | GI50 [5] | GI50 [6] | GI50 [7] | GI50 [8] | GI50 [9] | GI50 [10] | GI50 [11] | GI50 [12] | GI50 [13] | GI50 [14] | GI50 [15] | GI50 [16] | GI50 [17] | GI50 [18] | GI50 [19] | GI50 [20]
COc1cc(Cl)c(CC(=O)c2c[nH]c3ccccc23)cc1OC | > 100 µM (inactive) | > 100 µM (inactive) | > 100 µM | 12.6 µM (inactive) | 16.1 µM (inactive) | > 42.5 µM (inactive) | > 100 µM (inactive) | > 100 µM (inactive) | > 100 µM (inactive) | > 37.2 µM (inactive) | 8.55 µM (inactive) | 28.2 µM (inactive) | > 100 µM (inactive) | > 100 µM (inactive) | 6.22 µM (inactive) | 12.3 µM (inactive) | 8.95 µM (inactive) | 12.1 µM (inactive) |  | 
O=[N+]([O-])c1ccc(CSCc2ccc(Cl)cc2)cc1 | > 100 µM (inactive) | > 100 µM (inactive) | > 100 µM | > 100 µM (inactive) | > 100 µM (inactive) | > 100 µM (inactive) | > 100 µM (inactive) | 55.7 µM (inactive) | 17.5 µM (inactive) | 33.1 µM (inactive) | > 100 µM (inactive) | > 100 µM (inactive) | > 100 µM (inactive) | > 100 µM (inactive) | > 100 µM (inactive) | > 100 µM (inactive) | > 100 µM (inactive) | > 100 µM (inactive) | 20 µM (inactive) | 
O=C(O)CSCC(=O)O | > 100 µM (inactive) | > 100 µM (inactive) | > 100 µM | > 100 µM (inactive) | > 100 µM (inactive) | > 100 µM (inactive) | > 100 µM (inactive) |  | > 100 µM (inactive) | > 100 µM (inactive) | > 100 µM (inactive) | > 100 µM (inactive) | > 100 µM (inactive) | > 100 µM (inactive) |  | > 100 µM (inactive) | > 100 µM (inactive) | > 100 µM (inactive) | > 100 µM (inactive) | 
COc1cc(C2c3cc4c(cc3C3OC[C@@H]2C3CO)OCO4)cc(OC)c1OC (some centres undefined) | 60.5 µM (inactive) |  | 23.3 µM | 20.2 µM (inactive) | 28.8 µM (inactive) |  | 8.28 µM (inactive) | 38.6 µM (inactive) | 33.1 µM (inactive) | 2.66 µM (inactive) | 80.4 µM (inactive) | 29.9 µM (inactive) | 31.2 µM (inactive) | 23 µM (inactive) |  | 37.6 µM (inactive) | 38.1 µM (inactive) | 42 µM (inactive) | 23 µM (inactive) | 
CN(c1ccccc1Cl)S(=O)(=O)c1ccccc1 | > 100 µM (inactive) | > 100 µM (inactive) | > 100 µM | > 100 µM (inactive) | > 100 µM (inactive) | 54.5 µM (inactive) | > 100 µM (inactive) | > 100 µM (inactive) | 45 µM (inactive) | 14.6 µM (inactive) | > 100 µM (inactive) | 56.2 µM (inactive) | > 100 µM (inactive) | > 100 µM (inactive) | > 100 µM (inactive) |  | 81.5 µM (inactive) |  | > 100 µM (inactive) | 
CC(=O)Nc1ccc2c(C(=O)O)c(C)c(O)nc2n1 | > 100 µM (inactive) | > 100 µM (inactive) | > 100 µM | 33.7 µM (inactive) | > 100 µM (inactive) | > 100 µM (inactive) | > 100 µM (inactive) | > 100 µM (inactive) | 51.3 µM (inactive) | > 100 µM (inactive) | > 100 µM (inactive) | > 100 µM (inactive) |  | > 100 µM (inactive) | > 100 µM (inactive) | > 100 µM (inactive) | > 100 µM (inactive) |  | 32.5 µM (inactive) | 
O=[As](O)(O)c1ccc(/N=N/c2ccc(O)cc2)cc1 | > 100 µM (inactive) | > 100 µM (inactive) | > 100 µM | > 100 µM (inactive) | > 100 µM (inactive) | > 100 µM (inactive) | > 100 µM (inactive) | > 100 µM (inactive) | 4.32 µM (inactive) | > 100 µM (inactive) | > 100 µM (inactive) | > 100 µM (inactive) | > 100 µM (inactive) | > 100 µM (inactive) |  | > 100 µM (inactive) | > 100 µM (inactive) | > 100 µM (inactive) | > 100 µM (inactive) | 
CC1=CC=C2c3ccccc3C=CN2C(=O)C1 | > 100 µM (inactive) | 84.9 µM (inactive) | 45.9 µM | 54.8 µM (inactive) | > 100 µM (inactive) | 61.9 µM (inactive) | 37.2 µM (inactive) | 25.7 µM (inactive) | 25.6 µM (inactive) | 16.9 µM (inactive) | 62.5 µM (inactive) | 18.9 µM (inactive) | 40.9 µM (inactive) | 36.3 µM (inactive) | 73.8 µM (inactive) |  | 40.5 µM (inactive) |  | 43.3 µM (inactive) | 56.6 µM (inactive)
N#Cc1c2c(c(Nc3cccc(C(F)(F)F)c3)n3c1nc1ccccc13)CCCC2 | 18.9 µM (inactive) |  | 39.2 µM | 26.5 µM (inactive) | 21.8 µM (inactive) | 20.9 µM (inactive) | 15 µM (inactive) | 19.4 µM (inactive) | 15.2 µM (inactive) |  | 27.3 µM (inactive) | 30.1 µM (inactive) | 14.8 µM (inactive) | 81.3 µM (inactive) | 16.3 µM (inactive) | 22.7 µM (inactive) | 17.5 µM (inactive) | 26.8 µM (inactive) | 1.47 µM (inactive) | 
NC(=O)CC1OC(=O)Cc2cc3c(c(O)c21)C(=O)c1c(O)cccc1C3=O (centres undefined) | > 100 µM (inactive) | > 100 µM (inactive) | 71.4 µM | > 100 µM (inactive) | > 100 µM (inactive) | > 100 µM (inactive) | > 100 µM (inactive) |  | 71.3 µM (inactive) | > 100 µM (inactive) | 41.5 µM (inactive) | > 100 µM (inactive) | > 100 µM (inactive) |  | 92.7 µM (inactive) |  | > 100 µM (inactive) | 43.9 µM (inactive) | > 100 µM (inactive) | > 100 µM (inactive)
CCOC(=O)CCC(NC(=O)c1ccc(OCc2ccc3nc(OC)c(OC)nc3c2)cc1)C(=O)OCC (centres undefined) | > 100 µM (inactive) | 30.4 µM (inactive) | 75.5 µM | > 100 µM (inactive) | 59.4 µM (inactive) | > 100 µM (inactive) | 24 µM (inactive) | 70.8 µM (inactive) | 22.7 µM (inactive) | 31.7 µM (inactive) | 32.9 µM (inactive) | 43.3 µM (inactive) | 80 µM (inactive) | > 100 µM (inactive) | 57.3 µM (inactive) | 25.9 µM (inactive) |  | 71 µM (inactive) | 24.7 µM (inactive) | 50.1 µM (inactive)
c1ccc(COC2NCCN2Cc2ccccc2)cc1 (centres undefined) | > 100 µM (inactive) | 63.2 µM (inactive) | > 100 µM | > 100 µM (inactive) | > 100 µM (inactive) | > 100 µM (inactive) | > 100 µM (inactive) | > 100 µM (inactive) | > 100 µM (inactive) | 69 µM (inactive) | > 100 µM (inactive) | > 100 µM (inactive) | > 100 µM (inactive) | > 100 µM (inactive) | > 100 µM (inactive) | > 100 µM (inactive) | > 100 µM (inactive) | 41.7 µM (inactive) | > 100 µM (inactive) | 
COc1ccc(/C=C/C(=O)c2nc3ccccc3[nH]2)cc1 | 22 µM (inactive) | 17.6 µM (inactive) | 10.9 µM | 5.32 µM (inactive) | 21 µM (inactive) |  | 11.9 µM (inactive) | 3.8 µM (inactive) | 18 µM (inactive) | 9.79 µM (inactive) | 15.1 µM (inactive) | 22.5 µM (inactive) | 9.91 µM (inactive) | 4.62 µM (inactive) | 8.32 µM (inactive) | 15.5 µM (inactive) | 23.4 µM (inactive) | 26.4 µM (inactive) | 13.6 µM (inactive) | 
O=C1CCN2C(=N1)Sc1ccccc12 | > 100 µM (inactive) | > 100 µM (inactive) | > 100 µM | > 100 µM (inactive) | > 100 µM (inactive) | > 100 µM (inactive) | > 100 µM (inactive) | > 100 µM (inactive) | > 100 µM (inactive) | > 100 µM (inactive) | > 100 µM (inactive) | > 100 µM (inactive) | > 100 µM (inactive) | > 100 µM (inactive) | > 100 µM (inactive) | > 100 µM (inactive) | > 100 µM (inactive) |  | > 100 µM (inactive) | 
CN1C(=O)[C@H](c2c[nH]c3ccccc23)[C@H](c2c[nH]c3ccccc23)C1=O | > 41.6 µM (inactive) | 22.2 µM (inactive) | 24.8 µM | 27.2 µM (inactive) | 26.1 µM (inactive) | 22.3 µM (inactive) | 38.1 µM (inactive) | 24.9 µM (inactive) | 21.6 µM (inactive) | 5.13 µM (inactive) | 23.8 µM (inactive) | 19.1 µM (inactive) | 17.7 µM (inactive) | 36.1 µM (inactive) | 21.7 µM (inactive) | 26.7 µM (inactive) | 4.4 µM (inactive) |  | 34.2 µM (inactive) | > 52.5 µM (inactive)
O=C(c1ccco1)N1CCCN(C(=O)c2ccco2)C1=S | > 100 µM (inactive) | > 100 µM (inactive) | > 100 µM | 36.4 µM (inactive) |  | > 100 µM (inactive) | > 100 µM (inactive) | > 100 µM (inactive) | > 100 µM (inactive) | > 100 µM (inactive) | > 100 µM (inactive) | > 100 µM (inactive) | > 100 µM (inactive) | 82 µM (inactive) | 29.4 µM (inactive) | 39.6 µM (inactive) | > 100 µM (inactive) | > 100 µM (inactive) |  | 
